Assay results as given in patent US12083124B2 (Incyte Corporation, priority 2019, dated 2024).
Like-named read-outs stand apart in the source and are kept apart here.

Columns and labels:
[1] = target: wild-type un-phosphorylated FGFR3 (Homo sapiens, UniProt P22607); assay: FGFR Enzymatic Assay (FRET peptide phosphorylation), FGFR3
[2] = target: wild-type un-phosphorylated FGFR1 (Homo sapiens, UniProt P11362); assay: FGFR Enzymatic Assay (FRET peptide phosphorylation), FGFR1; settings: pre-incubated for 4 hours
wild-type un-phosphorylated FGFR1, sequence (P11362 22-822): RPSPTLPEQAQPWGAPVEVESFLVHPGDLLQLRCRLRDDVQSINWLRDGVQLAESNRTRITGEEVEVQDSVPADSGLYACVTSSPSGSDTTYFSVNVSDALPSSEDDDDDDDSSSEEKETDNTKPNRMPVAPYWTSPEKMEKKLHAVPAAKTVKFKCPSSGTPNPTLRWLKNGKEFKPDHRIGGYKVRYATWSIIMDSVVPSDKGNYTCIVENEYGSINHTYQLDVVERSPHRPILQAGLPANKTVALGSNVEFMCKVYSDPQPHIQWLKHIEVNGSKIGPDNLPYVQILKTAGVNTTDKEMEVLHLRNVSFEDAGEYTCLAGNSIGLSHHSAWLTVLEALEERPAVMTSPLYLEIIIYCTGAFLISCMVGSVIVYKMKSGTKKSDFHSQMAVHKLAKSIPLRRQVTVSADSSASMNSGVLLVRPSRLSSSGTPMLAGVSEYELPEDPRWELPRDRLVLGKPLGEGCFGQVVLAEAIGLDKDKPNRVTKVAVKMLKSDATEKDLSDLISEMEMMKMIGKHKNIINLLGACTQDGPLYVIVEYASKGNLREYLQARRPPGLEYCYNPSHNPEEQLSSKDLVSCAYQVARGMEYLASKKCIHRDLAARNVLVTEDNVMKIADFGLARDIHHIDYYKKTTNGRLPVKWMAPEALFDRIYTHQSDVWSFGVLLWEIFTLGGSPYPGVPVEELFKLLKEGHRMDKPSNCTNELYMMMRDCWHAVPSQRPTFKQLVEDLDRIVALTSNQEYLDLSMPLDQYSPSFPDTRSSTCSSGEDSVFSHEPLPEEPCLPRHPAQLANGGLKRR

[3] = target: wild-type un-phosphorylated FGFR4 (Homo sapiens, UniProt P22455); assay: FGFR Enzymatic Assay (FRET peptide phosphorylation), FGFR4
wild-type un-phosphorylated FGFR4, sequence (P22455 22-802): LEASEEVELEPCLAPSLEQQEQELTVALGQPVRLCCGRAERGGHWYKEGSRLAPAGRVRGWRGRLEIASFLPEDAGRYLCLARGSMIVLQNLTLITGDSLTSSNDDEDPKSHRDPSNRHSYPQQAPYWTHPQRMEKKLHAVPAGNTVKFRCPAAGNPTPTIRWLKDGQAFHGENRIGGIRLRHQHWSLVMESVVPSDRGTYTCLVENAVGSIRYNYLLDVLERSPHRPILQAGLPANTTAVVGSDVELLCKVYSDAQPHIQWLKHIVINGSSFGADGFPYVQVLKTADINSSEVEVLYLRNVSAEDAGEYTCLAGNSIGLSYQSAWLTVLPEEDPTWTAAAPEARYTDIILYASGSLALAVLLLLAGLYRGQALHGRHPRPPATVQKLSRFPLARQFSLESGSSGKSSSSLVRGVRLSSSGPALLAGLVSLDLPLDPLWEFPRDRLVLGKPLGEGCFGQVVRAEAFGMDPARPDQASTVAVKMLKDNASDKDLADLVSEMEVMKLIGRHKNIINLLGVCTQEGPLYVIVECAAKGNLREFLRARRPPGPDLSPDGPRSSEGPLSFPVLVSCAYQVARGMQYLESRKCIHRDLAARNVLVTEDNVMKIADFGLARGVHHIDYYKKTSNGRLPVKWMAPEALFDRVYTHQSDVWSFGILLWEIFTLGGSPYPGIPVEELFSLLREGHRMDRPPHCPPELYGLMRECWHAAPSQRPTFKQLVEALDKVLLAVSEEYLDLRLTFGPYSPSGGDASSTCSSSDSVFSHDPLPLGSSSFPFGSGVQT

[4] = target: wild-type un-phosphorylated FGFR2 (Homo sapiens, UniProt P21802); assay: FGFR Enzymatic Assay (FRET peptide phosphorylation), FGFR2
wild-type un-phosphorylated FGFR2, sequence (P21802 22-821): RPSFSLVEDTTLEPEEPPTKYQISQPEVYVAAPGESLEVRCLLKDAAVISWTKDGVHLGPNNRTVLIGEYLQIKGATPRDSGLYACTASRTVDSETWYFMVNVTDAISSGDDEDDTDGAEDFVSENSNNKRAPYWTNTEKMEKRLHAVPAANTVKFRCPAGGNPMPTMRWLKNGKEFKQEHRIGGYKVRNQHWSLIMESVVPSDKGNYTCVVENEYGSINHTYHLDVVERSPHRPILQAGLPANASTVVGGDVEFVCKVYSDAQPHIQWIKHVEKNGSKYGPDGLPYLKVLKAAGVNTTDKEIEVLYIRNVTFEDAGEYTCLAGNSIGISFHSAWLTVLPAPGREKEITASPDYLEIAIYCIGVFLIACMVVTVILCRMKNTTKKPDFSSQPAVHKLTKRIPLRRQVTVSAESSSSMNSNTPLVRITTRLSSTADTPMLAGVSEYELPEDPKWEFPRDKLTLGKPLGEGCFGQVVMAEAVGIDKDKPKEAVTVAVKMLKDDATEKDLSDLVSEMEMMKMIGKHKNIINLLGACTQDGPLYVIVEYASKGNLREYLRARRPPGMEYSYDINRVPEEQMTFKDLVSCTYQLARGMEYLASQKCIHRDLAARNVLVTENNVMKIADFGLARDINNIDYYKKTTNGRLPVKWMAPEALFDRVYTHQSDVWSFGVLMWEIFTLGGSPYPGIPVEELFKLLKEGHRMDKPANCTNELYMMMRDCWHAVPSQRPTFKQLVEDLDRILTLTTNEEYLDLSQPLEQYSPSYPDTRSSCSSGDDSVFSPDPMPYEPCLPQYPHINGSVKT

[5] = read-out: FGFR1, wild-type un-phosphorylated FGFR1
[6] = read-out: FGFR4, wild-type un-phosphorylated FGFR4, pre-incubated for 4 hours
[7] = FGFR1, wild-type un-phosphorylated FGFR1
[8] = read-out: FGFR2, wild-type un-phosphorylated FGFR2, pre-incubated for 4 hours

wild-type un-phosphorylated FGFR3, sequence (P22607 23-806): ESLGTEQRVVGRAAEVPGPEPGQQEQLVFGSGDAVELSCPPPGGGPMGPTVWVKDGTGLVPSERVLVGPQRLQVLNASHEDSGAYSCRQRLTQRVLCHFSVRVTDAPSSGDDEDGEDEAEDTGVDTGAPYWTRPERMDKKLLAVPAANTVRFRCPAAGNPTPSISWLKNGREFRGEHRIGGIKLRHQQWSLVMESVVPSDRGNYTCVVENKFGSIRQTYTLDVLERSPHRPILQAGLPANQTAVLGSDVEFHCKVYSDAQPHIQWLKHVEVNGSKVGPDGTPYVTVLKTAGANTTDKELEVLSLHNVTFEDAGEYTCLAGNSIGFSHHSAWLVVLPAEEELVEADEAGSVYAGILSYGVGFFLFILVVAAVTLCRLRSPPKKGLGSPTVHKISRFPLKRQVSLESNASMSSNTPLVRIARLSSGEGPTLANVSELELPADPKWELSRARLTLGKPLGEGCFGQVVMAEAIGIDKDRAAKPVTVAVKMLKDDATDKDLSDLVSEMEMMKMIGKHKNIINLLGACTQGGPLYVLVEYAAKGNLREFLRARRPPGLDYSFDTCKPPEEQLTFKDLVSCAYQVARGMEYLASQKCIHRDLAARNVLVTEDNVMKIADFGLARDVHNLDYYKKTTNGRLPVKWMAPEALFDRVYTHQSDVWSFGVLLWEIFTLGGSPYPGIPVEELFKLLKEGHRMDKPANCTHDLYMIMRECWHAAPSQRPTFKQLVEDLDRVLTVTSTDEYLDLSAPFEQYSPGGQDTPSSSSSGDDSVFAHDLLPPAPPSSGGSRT

Row | IC50 [1] | IC50 [2, 5] | IC50 [3, 6] | IC50 [4] | IC50 [2, 7] | IC50 [3] | IC50 [4, 8] | SMILES
1 | < 6 nM | 6 to 40 nM | 6 to 40 nM | < 6 nM | – | – | – | COc1cc2[nH]nc(-c3ccc(C4CCN(C(C)=O)CC4)nc3)c2nc1-c1cccc2c1CCC2C#N (single isomer, unassigned) [Example 182, 4-(3-(6-(1-Acetylpiperidin-4-yl)pyridin-3-yl)-6-methoxy-1H-pyrazolo[4,3-b]pyridin-5-yl)-2,3-dihydro-1H-indene-1-carbonitrile]
2 | < 6 nM | 6 to 40 nM | 6 to 40 nM | < 6 nM | – | – | – | COc1cc2[nH]nc(-c3ccc(C4CCN(C(C)=O)C4)nc3)c2nc1-c1cccc2c1CCC2C#N (single isomer, unassigned) [Example 183, 4-(3-(6-(1-Acetylpyrrolidin-3-yl)pyridin-3-yl)-6-methoxy-1H-pyrazolo[4,3-b]pyridin-5-yl)-2,3-dihydro-1H-indene-1-carbonitrile]
3 | < 6 nM | 6 to 40 nM | 6 to 40 nM | < 6 nM | – | – | – | COc1cc2[nH]nc(-c3ccc(C4CCN(C(=O)N5CCOCC5)C4)nc3)c2nc1-c1cccc2c1CCC2C#N (single isomer, unassigned) [Example 184, 4-(6-Methoxy-3-(6-(1-(morpholine-4-carbonyl)pyrrolidin-3-yl)pyridin-3-yl)-1H-pyrazolo[4,3-b]pyridin-5-yl)-2,3-dihydro-1H-indene-1-carbonitrile]
4 | < 6 nM | – | 6 to 40 nM | < 6 nM | 40 to 100 nM | – | – | COc1cc2[nH]nc(-c3cnn(CC#N)c3)c2nc1-c1cccc2c1CCC2C#N (single isomer, unassigned) [Example 185, 4-(3-(1-(Cyanomethyl)-1H-pyrazol-4-yl)-6-methoxy-1H-pyrazolo[4,3-b]pyridin-5-yl)-2,3-dihydro-1H-indene-1-carbonitrile]
5 | < 6 nM | 6 to 40 nM | 6 to 40 nM | < 6 nM | – | – | – | COc1cc2[nH]nc(-c3ccc(N4CCN(C)CC4)nc3)c2nc1-c1cccc2c1CCC2C#N (single isomer, unassigned) [Example 186, 4-(6-Methoxy-3-(6-(4-methylpiperazin-1-yl)pyridin-3-yl)-1H-pyrazolo[4,3-b]pyridin-5-yl)-2,3-dihydro-1H-indene-1-carbonitrile]
6 | < 6 nM | – | – | – | > 100 nM | > 100 nM | 6 to 40 nM | COc1cc2[nH]nc(-c3cnn(C)c3)c2nc1-c1cccc(C)c1C [Example 1, 5-(2,3-Dimethylphenyl)-6-methoxy-3-(1-methyl-1H-pyrazol-4-yl)-1H-pyrazolo[4,3-b]pyridine]
7 | < 6 nM | – | – | < 6 nM | 40 to 100 nM | 40 to 100 nM | – | COc1cc2[nH]nc(-c3cnn(C)c3)c2nc1-c1cccc2c1CCC2 [Example 2, 5-(2,3-Dihydro-1H-inden-4-yl)-6-methoxy-3-(1-methyl-1H-pyrazol-4-yl)-1H-pyrazolo[4,3-b]pyridine]
8 | < 6 nM | – | – | – | > 100 nM | > 100 nM | 6 to 40 nM | COc1cc2[nH]nc(-c3cnn(C)c3)c2nc1-c1cccc2c1OCC2 [Example 4, 5-(2,3-Dihydrobenzofuran-7-yl)-6-methoxy-3-(1-methyl-1H-pyrazol-4-yl)-1H-pyrazolo[4,3-b]pyridine]
9 | < 6 nM | – | – | – | > 100 nM | > 100 nM | 6 to 40 nM | COc1cc2[nH]nc(-c3cnn(C)c3)c2nc1-c1cccc(CC#N)c1C [Example 5, 2-(3-(6-Methoxy-3-(1-methyl-1H-pyrazol-4-yl)-1H-pyrazolo[4,3-b]pyridin-5-yl)-2-methylphenyl)acetonitrile]
10 | < 6 nM | – | – | < 6 nM | 40 to 100 nM | > 100 nM | – | COc1cc2[nH]nc(-c3cnn(C4CC(C#N)C4)c3)c2nc1-c1cccc2c1CCC2 (stereo not drawn) [Example 16, 3-(4-(5-(2,3-Dihydro-1H-inden-4-yl)-6-methoxy-1H-pyrazolo[4,3-b]pyridin-3-yl)-1H-pyrazol-1-yl)cyclobutanecarbonitrile]
11 | < 6 nM | – | – | < 6 nM | 40 to 100 nM | > 100 nM | – | COc1cc2[nH]nc(-c3cnn(C4CN(C)C4)c3)c2nc1-c1cccc2c1CCC2 [Example 17, 5-(2,3-Dihydro-1H-inden-4-yl)-6-methoxy-3-(1-(1-methylazetidin-3-yl)-1H-pyrazol-4-yl)-1H-pyrazolo[4,3-b]pyridine]
12 | < 6 nM | – | – | < 6 nM | 40 to 100 nM | > 100 nM | – | CCN1CC(n2cc(-c3n[nH]c4cc(OC)c(-c5cccc6c5CCC6)nc34)cn2)C1 [Example 18, 5-(2,3-Dihydro-1H-inden-4-yl)-3-(1-(1-ethylazetidin-3-yl)-1H-pyrazol-4-yl)-6-methoxy-1H-pyrazolo[4,3-b]pyridine]
13 | < 6 nM | – | – | < 6 nM | 40 to 100 nM | > 100 nM | – | COc1cc2[nH]nc(-c3cnn(C4CCN(C(=O)N(C)C)CC4)c3)c2nc1-c1cccc2c1CCC2 [Example 19, 4-(4-(5-(2,3-Dihydro-1H-inden-4-yl)-6-methoxy-1H-pyrazolo[4,3-b]pyridin-3-yl)-1H-pyrazol-1-yl)-N,N-dimethylpiperidine-1-carboxamide]
14 | < 6 nM | – | – | < 6 nM | 40 to 100 nM | > 100 nM | – | COC(=O)N1CCC(n2cc(-c3n[nH]c4cc(OC)c(-c5cccc6c5CCC6)nc34)cn2)CC1 [Example 20, Methyl 4-(4-(5-(2,3-dihydro-1H-inden-4-yl)-6-methoxy-1H-pyrazolo[4,3-b]pyridin-3-yl)-1H-pyrazol-1-yl)piperidine-1-carboxylate]
15 | < 6 nM | – | – | < 6 nM | 40 to 100 nM | 40 to 100 nM | – | COC(=O)N1CC(n2cc(-c3n[nH]c4cc(OC)c(-c5cccc6c5CCC6)nc34)cn2)C1 [Example 21, Methyl 3-(4-(5-(2,3-dihydro-1H-inden-4-yl)-6-methoxy-1H-pyrazolo[4,3-b]pyridin-3-yl)-1H-pyrazol-1-yl)azetidine-1-carboxylate]
16 | < 6 nM | – | – | < 6 nM | 40 to 100 nM | 40 to 100 nM | – | COc1cc2[nH]nc(-c3cnn(C4CN(C(C)=O)C4)c3)c2nc1-c1cccc2c1CCC2 [Example 22, 1-(3-(4-(5-(2,3-Dihydro-1H-inden-4-yl)-6-methoxy-1H-pyrazolo[4,3-b]pyridin-3-yl)-1H-pyrazol-1-yl)azetidin-1-yl)ethan-1-one]
17 | < 6 nM | – | – | < 6 nM | > 100 nM | > 100 nM | – | COc1cc2[nH]nc(-c3cnn(C4CN(S(C)(=O)=O)C4)c3)c2nc1-c1cccc2c1CCC2 [Example 23, 5-(2,3-Dihydro-1H-inden-4-yl)-6-methoxy-3-(1-(1-(methylsulfonyl)azetidin-3-yl)-1H-pyrazol-4-yl)-1H-pyrazolo[4,3-b]pyridine]
18 | < 6 nM | 6 to 40 nM | 6 to 40 nM | < 6 nM | – | – | – | COc1cc2[nH]nc(-c3cnn(C4CN(C(=O)N(C)C)C4)c3)c2nc1-c1cccc2c1CCC2 [Example 24, 3-(4-(5-(2,3-Dihydro-1H-inden-4-yl)-6-methoxy-1H-pyrazolo[4,3-b]pyridin-3-yl)-1H-pyrazol-1-yl)-N,N-dimethylazetidine-1-carboxamide]
19 | < 6 nM | 6 to 40 nM | – | < 6 nM | – | 40 to 100 nM | – | COc1cc2[nH]nc(-c3cnn(C4CN(C(=O)C5CC5)C4)c3)c2nc1-c1cccc2c1CCC2 [Example 25, Cyclopropyl(3-(4-(5-(2,3-dihydro-1H-inden-4-yl)-6-methoxy-1H-pyrazolo[4,3-b]pyridin-3-yl)-1H-pyrazol-1-yl)azetidin-1-yl)methanone]
20 | < 6 nM | – | – | < 6 nM | 40 to 100 nM | > 100 nM | – | COc1cc2[nH]nc(-c3cnn(CCN4CCOCC4)c3)c2nc1-c1cccc2c1CCC2 [Example 28, 4-(2-(4-(5-(2,3-Dihydro-1H-inden-4-yl)-6-methoxy-1H-pyrazolo[4,3-b]pyridin-3-yl)-1H-pyrazol-1-yl)ethyl)morpholine]
21 | < 6 nM | – | – | < 6 nM | 40 to 100 nM | 40 to 100 nM | – | COc1cc2[nH]nc(-c3cnn(C4CC4)c3)c2nc1-c1cccc2c1CCC2 [Example 29, 3-(1-Cyclopropyl-1H-pyrazol-4-yl)-5-(2,3-dihydro-1H-inden-4-yl)-6-methoxy-1H-pyrazolo[4,3-b]pyridine]
22 | < 6 nM | – | – | – | > 100 nM | 40 to 100 nM | 6 to 40 nM | COc1cc2[nH]nc(-c3cnn(CCC#N)c3)c2nc1-c1cccc2c1CCC2 [Example 30, 3-(4-(5-(2,3-Dihydro-1H-inden-4-yl)-6-methoxy-1H-pyrazolo[4,3-b]pyridin-3-yl)-1H-pyrazol-1-yl)propanenitrile]
23 | < 6 nM | – | – | < 6 nM | 40 to 100 nM | 40 to 100 nM | – | COc1cc2[nH]nc(-c3cnn(CCO)c3)c2nc1-c1cccc2c1CCC2 [Example 31, 2-(4-(5-(2,3-Dihydro-1H-inden-4-yl)-6-methoxy-1H-pyrazolo[4,3-b]pyridin-3-yl)-1H-pyrazol-1-yl)ethan-1-ol]
24 | < 6 nM | – | – | < 6 nM | 40 to 100 nM | > 100 nM | – | COc1cc2[nH]nc(-c3cnn([C@H]4CC[C@H](O)CC4)c3)c2nc1-c1cccc2c1CCC2 [Example 33, (trans)-4-(4-(5-(2,3-Dihydro-1H-inden-4-yl)-6-methoxy-1H-pyrazolo[4,3-b]pyridin-3-yl)-1H-pyrazol-1-yl)cyclohexan-1-ol]
